The term EC50 denotes the concentration giving half of the maximal effect.

This note sets out measurements from ChEMBL document CHEMBL4842358, “Design, synthesis and biological evaluation of sphingosine-1-phosphate receptor 2 antagonists as potent 5-FU-resistance reversal agents for the treatment of colorectal cancer” (Eur J Med Chem, 2021).

The nature of assay [1]: Reversal of 5-FU resistance against human SW620/5-FU cells assessed as inhibition of cell proliferation measured after 72 hrs in presence of 5-FU by MTT assay. Type of assay: functional, cell-based. (In general: Tetrazolium dyes change colour on reduction, which living cells bring about.)
In assay [2] the target is T1, Sphingosine 1-phosphate receptor 2 (Homo sapiens, UniProt O95136). As to the kind of experiment: Antagonist activity at S1PR2 in human SW620/5-FU cells assessed as downregulation of DPD expression by western blot analysis. Type of assay: functional, cell-based. The note with it: filed as antagonist. A general note: In western blotting, separated proteins are transferred to a membrane and probed.

Assay [3] has as its target T1, Sphingosine 1-phosphate receptor 2. The assay is described as follows: Binding affinity to S1PR2 (unknown origin) measured by surface plasmon resonance assay. The note with it: filed as antagonist. Background: SPR reads the build-up and loss of mass on a sensor chip optically.
Assay [4] shares this target. The assay is described as follows: Binding affinity to S1PR2 (unknown origin) assessed as association constant measured for 60 secs by surface plasmon resonance assay. Conditions: filed as antagonist, time 60.0 sec.
Another assay deals with HCT-116. As to the kind of experiment: Reversal of 5-FU resistance against human HCT-116 cells overexpressing DPD assessed as inhibition of cell proliferation measured after 72 hrs in presence of 5-FU by MTT assay. Type of assay: functional, cell-based. The note with it: HCT-116, 72 h.
Assay [5] addresses T1, Sphingosine 1-phosphate receptor 2. As to the kind of experiment: Binding affinity to S1PR2 (unknown origin) assessed as dissociation constant measured for 60 secs by surface plasmon resonance assay.
The test system of another assay is NCM460. The assay is described as follows: Cytotoxicity against human NCM460 cells assessed as cell viability measured after 72 hrs in presence of 5-FU by MTT assay. Type of assay: cell-based. The note with it: NCM460, 72 h.

Activity calls are given as the source filed them. The calls are words filed in the database; no cut-off is given here.

T1 sequence (O95136 whole entry): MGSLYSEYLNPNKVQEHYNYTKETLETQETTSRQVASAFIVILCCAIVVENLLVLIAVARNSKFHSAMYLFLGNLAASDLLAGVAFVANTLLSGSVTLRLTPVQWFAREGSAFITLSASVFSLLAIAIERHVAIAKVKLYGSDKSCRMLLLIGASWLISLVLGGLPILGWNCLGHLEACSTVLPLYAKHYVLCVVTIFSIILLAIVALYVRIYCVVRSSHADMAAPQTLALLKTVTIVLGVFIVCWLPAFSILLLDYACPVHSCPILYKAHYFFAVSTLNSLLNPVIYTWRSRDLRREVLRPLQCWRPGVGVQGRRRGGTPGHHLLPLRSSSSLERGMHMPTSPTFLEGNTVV

Consider `O=C(Nc1cc(Cl)nc(Cl)c1)Nc1cc2ccccn2n1`, for which the concentration for a half-maximal effect (EC50) amounted to 2.49 µM in assay [1], 5.13 µM with HCT-116 and 10.2 µM in the assay on NCM460. Besides, the inhibition result in assay [2] was “Active”. In assay [3], the K was 1.46 10^-8M. Also, the Ka in assay [4] is 7.93 10^6/M/s. Also, in assay [5], the “Dissociation rate constant (koff)” value was 1.16 10^-1/s.
Take `O=C(NNc1nc(N2CCOCC2)c2ccn(C3CC3)c2n1)Nc1cc(Cl)nc(Cl)c1`: the EC50 was determined as 436 µM in assay [1], 449 µM with HCT-116 and 549 µM in the assay on NCM460. In addition, the K in assay [3] is 2.17 10^-6M. In addition, the Ka in assay [4] is 6.12 10^4/M/s. Besides, the “Dissociation rate constant (koff)” value in assay [5] is listed as 1.33 10^-1/s.
For `O=C(Nc1cc(Cl)nc(Cl)c1)Nc1cc2ccc(-c3ccccc3)cn2n1`, the EC50 in assay [1] amounted to 9.25 µM; with HCT-116, 5.13 µM; with NCM460 it was 8.05 µM. In addition, in assay [2], the inhibition entry is “Active”. Also, the K in assay [3] is 4.38 10^-8M. The Ka in assay [4] was 4.59 10^6/M/s. Moreover, the “Dissociation rate constant (koff)” value in assay [5] is on record as 2.01 10^-1/s.
Turning to `COc1c(Cl)cc(NC(=O)Nc2cc(Cl)nc(Cl)c2)cc1Cl`, the EC50 worked out at 8.25 µM in assay [1], 41.5 µM in the assay on HCT-116 and 27.3 µM with NCM460. The inhibition result in assay [2] is “Active”. In assay [3], the K was 5 10^-8M. In addition, in assay [4], the Ka is 6.24 10^6/M/s. For the same compound, in assay [5], the “Dissociation rate constant (koff)” value is given as 3.12 10^-1/s.
With `Cn1ccc2c(-c3ccccc3)nc(NNC(=O)Nc3cc(Cl)nc(Cl)c3)nc21`, the EC50 in assay [1] was 528 µM; in the assay with HCT-116 it was 660 µM; in the assay with NCM460, 683 µM. Besides, the K in assay [3] was 2.61 10^-6M. Further, the Ka in assay [4] was 5.21 10^4/M/s. In addition, the “Dissociation rate constant (koff)” value in assay [5] was 1.36 10^-1/s.
Take `O=C(Nc1cc(Cl)nc(Cl)c1)Nc1cc(Cl)nc(OC2CCCC2)c1`: the EC50 in assay [1] was determined as 6.15 µM; in the assay with HCT-116, 5.12 µM; in the assay on NCM460, 21.4 µM. Moreover, in assay [2], the inhibition result is “Active”. In addition, the K in assay [3] was 3.99 10^-7M. Moreover, the Ka in assay [4] was 4.49 10^5/M/s. The “Dissociation rate constant (koff)” value in assay [5] was 1.79 10^-1/s.
Turning to `CNc1cc(C)nc(NNC(=O)Nc2cc(Cl)nc(Cl)c2)n1`, the values for the concentration for a half-maximal effect (EC50) (in assay [1]; with HCT-116; with NCM460) were 122 µM, 23.4 µM and 65.3 µM, respectively. In addition, the K in assay [3] is 4.24 10^-6M. In addition, in assay [4], the Ka is 5.56 10^4/M/s. The “Dissociation rate constant (koff)” value in assay [5] is listed as 2.36 10^-1/s.
Turning to `COc1cc(NC(=O)Nc2cc(Cl)nc(Cl)c2)cc(Cl)n1`, the EC50 stood at 14.2 µM in assay [1], 11.2 µM in the assay on HCT-116 and 33.2 µM in the assay with NCM460. The inhibition result in assay [2] is “Active”. In assay [3], the K was 6.82 10^-7M. Moreover, the Ka in assay [4] was 3.21 10^5/M/s. For the same compound, the “Dissociation rate constant (koff)” value in assay [5] was 2.19 10^-1/s.
As to `O=C(Nc1ccnc(Cl)c1)Nc1cc(Cl)nc(Cl)c1`, the EC50 was determined as 31.2 µM in assay [1], 16.1 µM with HCT-116 and 55.3 µM in the assay on NCM460. Moreover, in assay [3], the K is 5.5 10^-6M. Also, the Ka in assay [4] was 3.65 10^4/M/s. The “Dissociation rate constant (koff)” value in assay [5] is 2.01 10^-1/s.
As to `Cc1cc(NC(=O)Nc2cc(Cl)nc(Cl)c2)n(C)n1`, the EC50 was 67.2 µM in assay [1], 94.2 µM with HCT-116 and 134 µM in the assay on NCM460. In addition, the K in assay [3] is 3.3 10^-6M. For the same compound, the Ka in assay [4] is 5.36 10^4/M/s. The “Dissociation rate constant (koff)” value in assay [5] was 1.77 10^-1/s.
Regarding `CCOc1cc(NC(=O)Nc2cc(Cl)nc(Cl)c2)cc(Cl)n1`, the EC50 amounted to 8.15 µM in assay [1], 6.13 µM with HCT-116 and 25.3 µM with NCM460. For the same compound, in assay [2], the inhibition result is “Active”. In assay [3], the K is 5.2 10^-7M. Also, in assay [4], the Ka was 1.96 10^5/M/s. Also, the “Dissociation rate constant (koff)” value in assay [5] was 1.02 10^-1/s.
In the case of `O=C(Nc1cc(Cl)cc(Cl)c1)Nc1cc(Cl)nc(Cl)c1`, the figures for the EC50 (in assay [1]; in the assay on HCT-116; with NCM460) were 12.2 µM, 11.4 µM and 55.4 µM, respectively. The inhibition result in assay [2] is “Active”. Further, the K in assay [3] is 3.56 10^-6M. The Ka in assay [4] was 3.26 10^4/M/s. The “Dissociation rate constant (koff)” value in assay [5] was 1.16 10^-1/s.
As for `CN(C)c1nc(NNC(=O)Nc2cc(Cl)nc(Cl)c2)nc2c1ccn2C`, the results for the 50% effective concentration (EC50) (in assay [1]; with HCT-116; with NCM460) were 48.2 µM, 41.5 µM and 58.5 µM, respectively. Further, the K in assay [3] was 1.85 10^-6M. Besides, the Ka in assay [4] was 7.55 10^4/M/s. Moreover, in assay [5], the “Dissociation rate constant (koff)” value is 1.02 10^-1/s.
With `COc1ccc(-c2ccc3cc(NC(=O)Nc4cc(Cl)nc(Cl)c4)nn3c2)cc1`, the EC50 in assay [1] amounted to 9.62 µM; with HCT-116, 5.35 µM; with NCM460, 8.35 µM. In addition, the inhibition entry in assay [2] is “Active”. The K in assay [3] is 1.22 10^-8M. In addition, in assay [4], the Ka is 9.12 10^6/M/s. Moreover, the “Dissociation rate constant (koff)” value in assay [5] was 1.12 10^-1/s.
Take `O=C(NNc1nc(Nc2ccccc2)nc(N2CCCC2)n1)Nc1cc(Cl)nc(Cl)c1`: the figures for the EC50 (in assay [1]; in the assay with HCT-116; with NCM460) were 31.9 µM, 23.2 µM and 65.2 µM, respectively. Also, in assay [3], the K is 1.86 10^-7M. In addition, the Ka in assay [4] was 7.15 10^5/M/s. The “Dissociation rate constant (koff)” value in assay [5] is 1.33 10^-1/s.
As to `O=c1[nH]cc(F)c(=O)[nH]1` [FLUOROURACIL], the EC50 was above 1000 µM in assay [1], above 1000 µM in the assay with HCT-116 and 43.3 µM with NCM460.
On to `CN1CCN(C(=O)Nc2cc(Cl)nc(Cl)c2)CC1`, for which the EC50 stood at 548 µM in assay [1], 142 µM in the assay with HCT-116 and 521 µM with NCM460. Besides, the K in assay [3] is 5.35 10^-7M. Also, the Ka in assay [4] was 1.98 10^5/M/s. Besides, the “Dissociation rate constant (koff)” value in assay [5] is on record as 1.06 10^-1/s.
`CC(C)Oc1cc(NC(=O)Nc2cc(Cl)nc(Cl)c2)cc(Cl)n1`: the values for the EC50 (in assay [1]; in the assay with HCT-116; with NCM460) were 5.17 µM, 5.23 µM and 21.1 µM, respectively. In addition, the inhibition entry in assay [2] was “Active”. In addition, the K in assay [3] is 1.3 10^-7M. The Ka in assay [4] is 9.14 10^5/M/s. Also, the “Dissociation rate constant (koff)” value in assay [5] was 1.19 10^-1/s.
As for `O=C(Nc1cc(Cl)nc(Cl)c1)Nc1cc2ccc(Br)cn2n1`, the concentration giving a half-maximal response (EC50) was 11.7 µM in assay [1], 5.26 µM in the assay on HCT-116 and 8.94 µM in the assay with NCM460. Further, the inhibition result in assay [2] is “Active”. Besides, the K in assay [3] was 2.02 10^-8M. The Ka in assay [4] was 8.31 10^7/M/s. The Dissociation rate constant (koff) in assay [5] was found to be 0.168 s⁻¹.
Take `Cc1cc(NC(=O)Nc2cc(Cl)nc(Cl)c2)cc(C)n1`: the figures for the EC50 (in assay [1]; with HCT-116; in the assay with NCM460) were 234 µM, 86.2 µM and 576 µM, respectively. The K in assay [3] was 2.57 10^-8M. Moreover, the Ka in assay [4] was 5.69 10^6/M/s. Besides, in assay [5], the “Dissociation rate constant (koff)” value is given as 1.46 10^-1/s.
